Key:
Human PARG = biological target: T1, Human PARG (Homo sapiens, UniProt Q86W56); test: Gel-based PARG activity assay; format: biochemical; conditions: for inhibition at 0.0488281 µM: [L] 0.0488281 uM; for inhibition at 0.0976562 µM: [L] 0.0976562 uM; for inhibition at 0.195312 µM: [L] 0.195312 uM; for inhibition at 0.390625 µM: [L] 0.390625 uM; for inhibition at 0.78125 µM: [L] 0.78125 uM; for inhibition at 1.5625 µM: [L] 1.5625 uM; for inhibition at 3.125 µM: [L] 3.125 uM; for inhibition at 6.25 µM: [L] 6.25 uM; for inhibition at 12.5 µM: [L] 12.5 uM; for inhibition at 25 µM: [L] 25 uM; for inhibition at 50 µM: [L] 50 uM; for IC50: hPARG 1 nM, PARylated PARP1C 500 nM, 30 min
T1 construct: The human PARG (hPARG) catalytic domain (residues 389–976) was cloned in pET28a (Novagen); His-tag (N); made in house; host or cells: E. coli Rosetta
Description: PARP1C (2 μM) is enzymatically auto-modified in a reaction containing the PARP1 DBD (2 μM), a 24 mer nicked DNA oligo (2 μM), and NAD^+ (300 μM) for 1 h at 37 °C, as described previously. Human PARG^389–976 (1 nM) was pre-incubated with compounds for 1 h at room temperature. The reaction was initiated by the addition of PARylated PARP1 (final concentration of 500 nM) and quenched after 30 min incubation at room temperature by adding SDS-PAGE sample buffer. The gel was visualized by sypro-ruby staining[18] and the retained PARylated PARP1C species were quantified using ImageJ[59]. PARylated PARP1C that migrates slower than unmodified PARP1C was quantified. […] The IC50 values were determined by fitting the dose-response data for each compound to a four-parameter logistic equation using SigmaPlot (Systat Software Inc.).
To test the specificity of JA2131, human PARG^389–976 (1 nM) was pre-incubated with JA2131 (5, 10, and 20 μM) in the presence and absence of 0.1% Triton-X 100 or 0.1 mg/ml BSA for 1 h at room temperature. The reaction was initiated, quenched, visualized, and quantified as described above. […]
PARG activity assay. […]
PARP1 (500 nM). The reaction was quenched after a 30 -minu te in cu ba tion a t roo m te mpe ra tu re by adding SDS-PA GE sa mp le bu f fe r. PARylated PARP1C runs as a smear on SDS -PAGE that is reduced to a single band by PARG treatment. […]
2). (b) Qu an t if ica t ion o f the dose-response PARG inhibition by JA2 -3 using the gel-based PARG activity assay. hPARG (1 nM) was preincubated with increasing concentrations (0.032 – 1 µM) of JA2-3 f o r 1 hour at room temperature before PARylated PARP1C (500 nM) was added. The reaction was quenched after a 30-minu te incubation at room temperature. PARylated PARP1C migrates slower than unmodified PARP1C and was quantified using ImageJ. […] The rate of the PARG-dependent signal loss in the TR-FRET PAR turnover assay is not equivalent to the steady-state rate of PAR turnover, because the TR-FRET assay can’t detect signal loss until the length of PAR chains become shorter than 7 ADP-ribose units. Therefore, we used the gel-based PARG activity assay to accurately determine the IC50 values throughout the manuscript .

A172 glioblastoma cells = test: Sulforhodamine B (SRB) cytotoxicity assay; conditions: 72 h
Description: Normalized % viabilities are plotted against log concentration. Error bars show the percent coefficient of variation. […] Mann-Whitney test was used to generate the p-value. The DNA spread assay is the representation of two independently repeated experiments. Source Data are provided as a Source Data file.
Cells were plated in 96-well plates, treated as designated in reduced 5% FBS and fixed with trichloroacetic acid after 72 h, as previously described by[43]. […] Colorimetric or fluorescence analysis was performed in a FlexStation 3, using SoftMax Pro 7.0, Molecular Devices. Normalized graphs were generated with Prism 8 software, non-linear 4-parameter data fitting was performed for IC50 calculation.

rat PARG = biological target: T2, rat PARG (Rattus norvegicus, UniProt Q9QYM2); test: TR-FRET PAR turnover assay (HTS and dose-response); format: biochemical; conditions: for TR-FRET: 6.7 μM compound; for IC50: dose-response, rat PARG 12.5 nM, read-out: Estimated IC50
T2 construct: The catalytic domain of rat PARG (residues 385–972) was purified as described previously; made in house
Excerpt: Importantly, PARG enzymatic function can be required for tumorigenesis. Therefore, we sought to identify a selective PARG inhibitor through our robust PARG enzyme kinetic assay, which quantitatively monitors real-time PAR-mediated PARP1-XRCC1 interactions and disassembly in a multi-well format. A strong TR-FRET signal was generated upon assembly of the Tb^3+-chelated XRCC1 (FRET donor) with PARylated PARP1, which incorporates fluorescein-labeled ADP-ribose moieties into PAR chains (FRET acceptor). The addition of PARG caused a time-dependent loss of the TR-FRET signal by reversing PARylation and disassembling the PARP1-XRCC1 complex (Supplementary Fig. 1)[37].
For a high-throughput screening (HTS) of PARG inhibitors, we developed a high-throughput PARG activity assay using the TR-FRET system (a manuscript describing the details of this assay will be published elsewhere). Briefly, the fluorescein molecule (FITC) was enzymatically incorporated into PARP1 in a reaction containing PARP1C (2 μM), the PARP1 DBD (2 μM), a 24 mer nicked DNA oligo (2 μM), and a mixture of unlabeled NAD^+ (Sigma) and FITC-NAD^+ (Trevigen) substrates (total NAD^+ concentration of 100 μM). After incubation for 1 h at 37 °C, PARylated PARP1 was desalted using a PD-10 desalting column (GE healthcare) in a buffer containing 25 mM Tris-HCl (pH 7.5), 50 mM NaCl, and 0.01% NP-40 and used as the FRET acceptor. The biotin-tagged BRCT1 domain of XRCC1 (BRCT1, 5 nM) was conjugated with an equimolar concentration of Tb^3+-chelated streptavidin (Life Technologies) in TR-FRET assay buffer (FRET donor). […] The reaction was started by the addition of the FRET pair of FITC-labeled PARP1 (42 nM) and Tb^3+-BRCT1 (5 nM). The TR-FRET signal was subsequently monitored for 60 min.
Small molecule inhibitors of PARG were identified by high-throughput screening (HTS) using the TR-FRET PAR turnover assay. Compounds (final concentration of 6.7 μM) from the NCI Diversity Set II library (1990 compounds) were pre dispensed into black polystyrene 384-well plates (Corning) using a Hummingbird liquid handler (Digilab). Then, 10 μl of rat PARG^385–972 (12.5 nM and 25 nM) were subsequently dispensed into plates, using a multi-drop combi nL reagent dispenser (Thermo Scientific) and incubated with compounds for 1 h at 4 °C. The reaction was initiated by the addition of 20 μl of the premixed FRET pair of FITC-labeled PARP1 (42 nM) and Tb^3+-BRCT1 (5 nM), and the TR-FRET signal was monitored every 4 min for 40 min (11 data points). Hits were selected by visually comparing the rate of the TR-FRET signal decrease in each well to that of negative control reactions containing DMSO (Fig. 1b and see Text for details). The HTS was performed at the High-Throughput Screening Core (HTSC) at Washington University School of Medicine.

T1 sequence (Q86W56 389-976): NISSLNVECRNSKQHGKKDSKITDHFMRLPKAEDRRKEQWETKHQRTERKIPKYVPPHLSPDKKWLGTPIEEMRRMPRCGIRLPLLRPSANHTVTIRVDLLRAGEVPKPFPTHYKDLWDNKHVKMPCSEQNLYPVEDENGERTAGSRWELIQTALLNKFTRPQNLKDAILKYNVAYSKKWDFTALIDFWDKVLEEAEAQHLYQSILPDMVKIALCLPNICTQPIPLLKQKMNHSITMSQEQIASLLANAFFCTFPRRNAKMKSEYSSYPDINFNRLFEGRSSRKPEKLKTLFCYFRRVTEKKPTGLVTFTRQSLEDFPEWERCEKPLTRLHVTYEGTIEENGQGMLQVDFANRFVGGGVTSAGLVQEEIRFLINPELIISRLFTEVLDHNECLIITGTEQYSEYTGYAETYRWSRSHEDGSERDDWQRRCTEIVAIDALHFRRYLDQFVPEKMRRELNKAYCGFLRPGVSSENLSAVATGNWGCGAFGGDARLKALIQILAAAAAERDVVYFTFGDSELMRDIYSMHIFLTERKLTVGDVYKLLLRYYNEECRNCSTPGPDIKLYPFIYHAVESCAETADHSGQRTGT
T2 sequence (Q9QYM2 385-972): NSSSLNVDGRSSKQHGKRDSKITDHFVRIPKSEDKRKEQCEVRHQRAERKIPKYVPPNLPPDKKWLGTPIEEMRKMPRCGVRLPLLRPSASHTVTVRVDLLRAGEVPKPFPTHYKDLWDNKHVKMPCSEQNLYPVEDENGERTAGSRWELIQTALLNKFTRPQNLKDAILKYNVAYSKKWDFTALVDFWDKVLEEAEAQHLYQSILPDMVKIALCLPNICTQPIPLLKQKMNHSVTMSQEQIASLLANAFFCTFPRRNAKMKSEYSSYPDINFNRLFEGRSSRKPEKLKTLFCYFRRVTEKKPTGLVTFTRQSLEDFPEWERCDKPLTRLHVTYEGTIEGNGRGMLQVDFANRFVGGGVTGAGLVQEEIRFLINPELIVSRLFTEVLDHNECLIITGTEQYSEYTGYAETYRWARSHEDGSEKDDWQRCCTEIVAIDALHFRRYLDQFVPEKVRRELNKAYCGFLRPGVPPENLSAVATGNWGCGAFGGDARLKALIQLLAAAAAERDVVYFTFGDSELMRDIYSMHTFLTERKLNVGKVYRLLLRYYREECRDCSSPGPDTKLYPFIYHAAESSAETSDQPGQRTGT

Cn1c(=O)c2[nH]c(SCCN3CCOCC3)nc2n(C)c1=S [JA2-5]
inhibition at 0.0488281 µM (Human PARG): 6.3% | inhibition at 0.0976562 µM (Human PARG): 19.6% | inhibition at 0.195312 µM (Human PARG): 28.3% | inhibition at 0.390625 µM (Human PARG): 27.3% | inhibition at 0.78125 µM (Human PARG): 35.2% | inhibition at 1.5625 µM (Human PARG): 71% | inhibition at 3.125 µM (Human PARG): 81.9% | inhibition at 6.25 µM (Human PARG): 87.9% | inhibition at 12.5 µM (Human PARG): 89.1% | inhibition at 25 µM (Human PARG): 99.8% | inhibition at 50 µM (Human PARG): 104% | IC50 (Human PARG): 1000 nM

NC(=O)NO [Hydroxyurea]
IC50 (A172 glioblastoma cells): 381 ± 117 µM

O=c1[nH]c2[nH]c(=S)[nH]c(=S)c2[nH]1 [JA2-3]
TR-FRET (rat PARG; 12.5 nM PARG, 0 min): 1.1077 | TR-FRET (rat PARG; 12.5 nM PARG, 4 min): 1.1706 | TR-FRET (rat PARG; 12.5 nM PARG, 8 min): 1.1753 | TR-FRET (rat PARG; 12.5 nM PARG, 12 min): 1.0984 | TR-FRET (rat PARG; 12.5 nM PARG, 16 min): 1.1414 | TR-FRET (rat PARG; 12.5 nM PARG, 20 min): 1.0328 | TR-FRET (rat PARG; 12.5 nM PARG, 24 min): 0.9368 | TR-FRET (rat PARG; 12.5 nM PARG, 28 min): 0.9375 | TR-FRET (rat PARG; 12.5 nM PARG, 32 min): 0.9636 | TR-FRET (rat PARG; 12.5 nM PARG, 36 min): 0.9240 | TR-FRET (rat PARG; 12.5 nM PARG, 40 min): 0.9660 | TR-FRET (rat PARG; 25 nM PARG, 0 min): 1.1716 | TR-FRET (rat PARG; 25 nM PARG, 4 min): 1.2418 | TR-FRET (rat PARG; 25 nM PARG, 8 min): 1.1876 | TR-FRET (rat PARG; 25 nM PARG, 12 min): 1.1061 | TR-FRET (rat PARG; 25 nM PARG, 16 min): 1.0537 | TR-FRET (rat PARG; 25 nM PARG, 20 min): 1.0170 | TR-FRET (rat PARG; 25 nM PARG, 24 min): 0.9403 | TR-FRET (rat PARG; 25 nM PARG, 28 min): 0.9903 | TR-FRET (rat PARG; 25 nM PARG, 32 min): 1.0366 | TR-FRET (rat PARG; 25 nM PARG, 36 min): 0.9358 | TR-FRET (rat PARG; 25 nM PARG, 40 min): 1.0455 | inhibition at 0.0001 µM (Human PARG; 0.5 h, [L] 1.00E-04 uM): 0% | inhibition at 0.03125 µM (Human PARG; [L] 0.03125 uM): 17% | inhibition at 0.0625 µM (Human PARG; [L] 0.0625 uM): 35.9% | inhibition at 0.125 µM (Human PARG; [L] 0.125 uM): 56.7% | inhibition at 0.25 µM (Human PARG; [L] 0.25 uM): 74.4% | inhibition at 0.5 µM (Human PARG; [L] 0.5 uM): 88% | inhibition at 1 µM (Human PARG; [L] 1 uM): 103% | IC50 (Human PARG): 100 nM

Cn1c(=O)c2[nH]c(SCCN3CCOCC3)nc2n(C)c1=O [JA2120]
potency difference JA2131 (6´-thiocarbonyl) vs JA2120 (6´-carbonyl) (Human PARG): more than 50 fold | inhibition at 0.0488281 µM (Human PARG): 6.05% | inhibition at 0.0976562 µM (Human PARG): 5.87% | inhibition at 0.195312 µM (Human PARG): 7.21% | inhibition at 0.390625 µM (Human PARG): 10.4% | inhibition at 0.78125 µM (Human PARG): 16.2% | inhibition at 1.5625 µM (Human PARG): 24.6% | inhibition at 3.125 µM (Human PARG): 25.7% | inhibition at 6.25 µM (Human PARG): 24.7% | inhibition at 12.5 µM (Human PARG): 33.9% | inhibition at 25 µM (Human PARG): 45.5% | inhibition at 50 µM (Human PARG): 67% | inhibition at 100 µM (Human PARG; [L] 100 uM): 88.3% | IC50 (Human PARG): 25700 nM

O=C1C=CC(=Nc2cccc3c(N=C4C=CC(=O)O4)cccc23)O1 [JA1-3]
IC50 (rat PARG): ~400 nM

CCCOCN1C(=O)C=CC1=O [JA1-1]
IC50 (rat PARG): 1000 to 2000 nM

Cn1c(=S)c2nc(SCCN3CCCC3)[nH]c2n(C)c1=O [JA2-4]
inhibition at 0.0488281 µM (Human PARG): 2.01% | inhibition at 0.0976562 µM (Human PARG): 4.3% | inhibition at 0.195312 µM (Human PARG): 25.2% | inhibition at 0.390625 µM (Human PARG): 34.9% | inhibition at 0.78125 µM (Human PARG): 48.4% | inhibition at 1.5625 µM (Human PARG): 67% | inhibition at 3.125 µM (Human PARG): 70.1% | inhibition at 6.25 µM (Human PARG): 78.4% | inhibition at 12.5 µM (Human PARG): 87.5% | inhibition at 25 µM (Human PARG): 93.6% | inhibition at 50 µM (Human PARG): 100% | IC50 (Human PARG): 900 nM

Reference: PMC6906431, “Selective small molecule PARG inhibitor causes replication fork stalling and cancer cell death” (Nature Communications, 2019)
